# Source: patent publication US20070025995A1, “Taxoid derivative covalently linked to tumor-specific antibody and a method for preparing the same” (priority 2005, published 2007)
# Tested on: tubulin
# Assay: Tubulin polymerization activity (HTS-Tubulin Polymerization Assay Kit, OD340)
# Type: biochemical
# Conditions: absorbance at 340 nm over reaction time; FIG. 1; paclitaxel control 3.7 mg/mL aqueous solution
# Excerpt: The anticancer agent of the present invention has the structure of paclitaxel or docetaxel, and thus it was conjectured that the compound manifests its anticancer effects by inducing overproduction of tubulin in the same manner as paclitaxel or docetaxel. However, this compound blocks tubulin polymerization in the same manner as vinblastine. The tubulin polymerization activity assay was, as shown in Test Example 1, determined by measuring the absorbance at 340 nm and measuring tubulin polymerization activity.
# Tubulin polymerization activity was measured using the HTS-Tubulin Polymerization Assay Kit (manufactured by Cytoskeleton) with respect to both the reaction solution of the present invention obtained in Example 1 and 3.7 mg/mL aqueous solution of paclitaxel used as a control.
# The horizontal axis in the figure denotes reaction time (min) and the vertical axis represents tubulin polymerization activity (OD340).
smiles,measurement,value
"CC(=O)O[C@H]1C(=O)[C@@]2(C)[C@H]([C@H](OC(=O)c3ccccc3)[C@]3(O)C[C@H](OC(=O)[C@H](O)[C@@H](NC(=O)c4ccccc4)c4ccccc4)C(C)=C1C3(C)C)[C@]1(OC(C)=O)CO[C@@H]1C[C@@H]2O [paclitaxel, Paclitaxel]",tubulin polymerization activity (OD340),tubulin polymerization was stimulated
